In article PMC9996706, “A curcumin direct protein biosensor for cell‐free prototyping” (Engineering Biology, 2022) one finds Kd data, which are given here for 1 compound.

This assay has as its target T1, EcCurA (E. coli curcumin reductase, double bond reductase) (Escherichia coli, UniProt P76113).
T1 construct: gene curA
T1 sequence (P76113 1-345): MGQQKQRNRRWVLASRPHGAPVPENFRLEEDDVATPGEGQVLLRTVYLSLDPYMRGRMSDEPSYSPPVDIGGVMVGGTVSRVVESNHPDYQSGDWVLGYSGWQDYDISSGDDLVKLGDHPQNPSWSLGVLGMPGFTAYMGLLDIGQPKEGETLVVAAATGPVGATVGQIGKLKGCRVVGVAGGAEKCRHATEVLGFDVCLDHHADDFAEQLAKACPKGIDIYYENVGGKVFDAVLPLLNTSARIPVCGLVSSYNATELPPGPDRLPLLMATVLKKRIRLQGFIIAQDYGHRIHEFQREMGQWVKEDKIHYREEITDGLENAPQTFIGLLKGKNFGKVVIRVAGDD
Nature of the assay: fluorescence titration. Type of assay: binding.

In general, Kd refers to the concentration at which binding is half-saturated. The low end stands for tighter binding, the high end for weaker binding. `COc1cc(/C=C/C(=O)CC(=O)/C=C/c2ccc(O)c(OC)c2)ccc1O` [curcumin] came in with a dissociation constant (Kd) of 8.39 µM.
